Counter-ions that a name gives are not always drawn.
Tests used:
[1] = biological target: T1, CYP1A2 (Homo sapiens, UniProt P05177); test: CYP450 panel inhibition in human liver microsomes, 1A2 (phenacetin); conditions: human, microsomes, pH 7.4
T1 sequence (P05177 1-516): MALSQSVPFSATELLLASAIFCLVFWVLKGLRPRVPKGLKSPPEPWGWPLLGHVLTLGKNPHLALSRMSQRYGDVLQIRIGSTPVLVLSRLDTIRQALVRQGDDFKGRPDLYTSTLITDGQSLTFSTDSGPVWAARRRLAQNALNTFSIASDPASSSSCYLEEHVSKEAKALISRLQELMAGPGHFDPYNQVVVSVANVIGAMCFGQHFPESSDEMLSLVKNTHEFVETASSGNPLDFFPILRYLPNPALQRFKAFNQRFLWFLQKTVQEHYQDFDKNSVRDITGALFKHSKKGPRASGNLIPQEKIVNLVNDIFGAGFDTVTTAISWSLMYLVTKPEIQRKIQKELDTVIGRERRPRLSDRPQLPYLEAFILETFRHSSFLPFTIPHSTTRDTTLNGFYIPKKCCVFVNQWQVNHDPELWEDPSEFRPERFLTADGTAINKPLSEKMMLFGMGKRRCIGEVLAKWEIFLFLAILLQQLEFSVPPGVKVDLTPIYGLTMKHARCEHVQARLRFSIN

[2] = Hepatocyte stability, wistar hannover rat; type: in vitro ADME; conditions: 0.5 million cells/ml; for CLint scaled at 2 μM: Wistar Hannover, rat, hepatocytes; for half-life at 2 μM: wistar hannover rat hepatocytes
Method: (§1) In this study, human, cynomolgus monkey, beagle dog, wistar hannover rat, and balb/c mouse hepatocyle stability was determined.

[3] = biological target: CYP3A4 (Homo sapiens, UniProt P08684); test: in vitro; conditions: microsomes, pH 7.4
Chain of CYP3A4 (P08684 whole entry): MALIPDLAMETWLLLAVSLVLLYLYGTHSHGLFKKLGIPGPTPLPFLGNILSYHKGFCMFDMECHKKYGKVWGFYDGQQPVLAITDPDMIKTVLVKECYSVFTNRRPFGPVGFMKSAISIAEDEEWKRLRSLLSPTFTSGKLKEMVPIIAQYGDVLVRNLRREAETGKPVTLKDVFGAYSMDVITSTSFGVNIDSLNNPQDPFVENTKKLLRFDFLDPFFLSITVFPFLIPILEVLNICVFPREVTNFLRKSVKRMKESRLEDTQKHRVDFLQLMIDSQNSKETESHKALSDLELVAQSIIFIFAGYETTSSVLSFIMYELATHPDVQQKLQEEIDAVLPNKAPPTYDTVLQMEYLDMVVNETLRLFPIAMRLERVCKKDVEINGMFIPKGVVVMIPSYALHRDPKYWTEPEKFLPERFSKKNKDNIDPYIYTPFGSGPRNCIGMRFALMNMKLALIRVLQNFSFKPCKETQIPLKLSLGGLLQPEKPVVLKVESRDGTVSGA

[4] = biological target: CYP2D6 (Homo sapiens, UniProt P10635); test: in vitro; conditions: microsomes, pH 7.4
Chain of CYP2D6 (P10635 whole entry): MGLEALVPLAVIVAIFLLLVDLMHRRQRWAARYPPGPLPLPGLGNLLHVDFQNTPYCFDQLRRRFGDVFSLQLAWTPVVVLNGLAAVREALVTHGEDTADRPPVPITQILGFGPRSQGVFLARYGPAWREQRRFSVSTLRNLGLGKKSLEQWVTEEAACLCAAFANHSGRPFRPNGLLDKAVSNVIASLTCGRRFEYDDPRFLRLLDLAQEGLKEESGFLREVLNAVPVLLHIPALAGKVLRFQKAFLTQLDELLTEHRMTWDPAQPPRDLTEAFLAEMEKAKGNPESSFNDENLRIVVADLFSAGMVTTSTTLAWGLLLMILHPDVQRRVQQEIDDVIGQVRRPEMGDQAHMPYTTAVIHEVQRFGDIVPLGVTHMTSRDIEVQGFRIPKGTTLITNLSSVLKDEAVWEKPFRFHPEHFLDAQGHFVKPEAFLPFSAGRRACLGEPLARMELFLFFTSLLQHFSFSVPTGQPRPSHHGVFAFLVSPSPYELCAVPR

[5] = Hepatocyte stability, balb/c mouse; type: in vitro ADME; conditions: 0.5 million cells/ml; for CLint scaled at 2 μM: BALB/c, mouse, hepatocytes; for half-life at 2 μM: balb/c mouse hepatocytes
Method: as §1

[6] = Hepatocyte stability, human; type: in vitro ADME; conditions: 0.5 million cells/ml; for half-life at 2 μM: human hepatocytes, 120 min; for CLint scaled at 2 μM: human, hepatocytes
Method: as §1

[7] = Mouse pharmacokinetics (oral cassette dosing), plasma; type: in vivo; conditions: female, mouse, BALB/c immunocompetent mice, 5 mg/kg p.o.; for AUC(0-t): read-out: AUC0-t; for Cmax: read-out: Cmax; for Tmax: read-out: Tmax
Method: Female mice (BALC/c) received a single dose (3 mice/treatment) of vehicle (10% 1N HCl:90% [20% […]) and at 0.5, 1, 2, 4, 8, 12 and 24-hour post dose humanely euthanized.
Blood was obtained through cardiac puncture into K+EDTA tubes, mixed by inversion and centrifuged to obtain the plasma. Blood will be kept on ice or at approximately 4° C. prior. Centrifugation will take place within 30 minutes of blood collection affording plasma samples. Plasma samples will be frozen as soon as possible after centrifugation and stored at −80° C. until analysis. All samples will be analysed by means of LC-MS/MS. Method development for bioanalysis will be performed by pharmacokinetics Department of Crown Bioscience (Taicang) Inc. using LC-MS/MS analysis (using Waters HSS T3 2.1×50 mm (1.8 um) LC column, and an API-4000 Electrospray MS unit). The results of a kinetic solubility (free base) study are represented in Table 19.

[8] = Hepatocyte stability, beagle dog; type: in vitro ADME; conditions: 0.5 million cells/ml; for half-life at 2 μM: beagle dog hepatocytes; for CLint scaled at 2 μM: beagle, dog, hepatocytes
Method: as §1

[9] = PAMPA (pH 7.4); type: in vitro ADME; conditions: PAMPA; pH = 7.4 (Table 14)
[10] = biological target: T2, CYP2C8 (Homo sapiens, UniProt P10632); test: in vitro; conditions: microsomes, pH 7.4
T2 sequence (P10632 1-490): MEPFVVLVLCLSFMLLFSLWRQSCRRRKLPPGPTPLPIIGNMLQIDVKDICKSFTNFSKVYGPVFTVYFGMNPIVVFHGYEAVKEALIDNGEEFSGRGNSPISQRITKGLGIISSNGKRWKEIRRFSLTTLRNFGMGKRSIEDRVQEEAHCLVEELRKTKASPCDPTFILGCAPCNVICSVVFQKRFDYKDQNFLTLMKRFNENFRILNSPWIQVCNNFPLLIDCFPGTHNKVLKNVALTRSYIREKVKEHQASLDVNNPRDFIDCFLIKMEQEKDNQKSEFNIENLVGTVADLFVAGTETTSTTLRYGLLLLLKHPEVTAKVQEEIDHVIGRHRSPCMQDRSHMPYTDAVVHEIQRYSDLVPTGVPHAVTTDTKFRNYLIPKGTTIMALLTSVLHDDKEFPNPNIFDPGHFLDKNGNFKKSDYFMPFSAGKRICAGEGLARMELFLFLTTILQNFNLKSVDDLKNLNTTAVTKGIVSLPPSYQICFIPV

[11] = read-out: CLint (L/hr/kg) (converted)

SMILES	inhibition at 30 min, 10 µM [1] [%]	CLint scaled at 2 μM [2, 11] [L/h/kg]	CLint scaled at 2 μM ([2]; read-out: CLint (mL/min/kg)) [L/h/kg]	half-life at 2 μM [2] [h]	inhibition at 30 min, 10 µM [3] [%]	inhibition at 30 min, 10 µM [4] [%]	CLint scaled at 2 μM [5, 11] [L/h/kg]	CLint scaled at 2 μM ([5]; read-out: CLint (mL/min/kg)) [L/h/kg]	half-life at 2 μM [5] [h]	half-life at 2 μM [6] [h]	CLint scaled at 2 μM [6, 11] [L/h/kg]	CLint scaled at 2 μM ([6]; read-out: CLint (mL/min/kg)) [L/h/kg]	AUC(0-t) [7] [µg·h/mL]	Cmax [7] [µg/mL]	Tmax [7] [h]	half-life at 2 μM [8] [h]	CLint scaled at 2 μM [8, 11] [L/h/kg]	CLint scaled at 2 μM ([8]; read-out: CLint (mL/min/kg)) [L/h/kg]	Papp at 4 h, 50 μM [9] [nm/s]	inhibition at 30 min, 10 µM [10] [%]	other results
CCS(=O)(=O)Nc1cccc(Cc2c(CN3CCNCC3)c3cc(Cl)c(OC(=O)N(C)C)cc3oc2=O)c1Cl [Compound 257, 6-chloro-3-(2-chloro-3-(ethylsulfonamido)benzyl)-2-oxo-4-(piperazin-1-ylmethyl)-2H-chromen-7-yl dimethylcarbamate hydrochloride]	9.9	2.13	2.13	1.75	67.4	10.1	4.78	4.78	3.43	12	0.312	0.313	0.103	0.0203	4	1.88	3.96	3.97	80	97.5	–
CNS(=O)(=O)Nc1cccc(Cc2c(CN3CCNCC3)c3cc(Cl)c(OC(=O)N(C)C)cc3oc2=O)c1Cl [Compound 256, 6-chloro-3-(2-chloro-3-((N-methylsulfamoyl)amino)benzyl)-2-oxo-4-(piperazin-1-ylmethyl)-2H-chromen-7-yl dimethylcarbamate hydrochloride]	6.2	2.12	2.12	1.75	61.8	7.1	4.98	4.98	3.28	15.4	0.242	0.242	0.0195	0.0083	0.5	2.98	2.5	2.5	40	97	AUC(0-inf) [7]: 0.0283 µg·h/mL
CNS(=O)(=O)Nc1cccc(Cc2c(CN3CCNCC3)c3ccc(OC(=O)N(C)C)cc3oc2=O)c1Cl [Compound 246, 3-(2-chloro-3-((N-methylsulfamoyl)amino)benzyl)-2-oxo-4-(piperazin-1-ylmethyl)-2H-chromen-7-yl dimethylcarbamate hydrochloride]	-3.7	1.25	1.25	3	16.2	5.1	3.62	3.62	4.53	28.8	0.13	0.13	–	–	–	6.07	1.23	1.23	20	10.5	–

— US20250179057A1, “MEK IMMUNE ONCOLOGY INHIBITORS AND THERAPEUTIC USES THEREOF” (Immuneering Corporation, priority 2022, published 2025)
